What is called Kd is a measure of binding affinity in units of concentration. A low value points to a tighter complex. Broadly, the IC50 is the concentration at which inhibition is half-maximal. The term inhibition denotes the relative decrease from the control value, in per cent.

Experiment [1] addresses human RORγt ligand binding domain (RORγt LBD) (Homo sapiens (Human), UniProt P51449). As to the kind of experiment: RORγt ThermoFluor assay. (In general: Differential scanning fluorimetry follows unfolding on heating by fluorescence.)
Experiment [2] deals with full-length human RORγt (GAL4-DBD-RORγt fusion) in HEK293T cells (Homo sapiens (Human), UniProt P51449). Description: RORγt (full-length human) reporter assay, conditions A or B. Format: cell-based. Particulars: for IC50: HEK293T cells, read-out: RORγt (FL) Reporter Assay A or B, IC50; for inhibition at 3 µM / inhibition at 6 µM / inhibition at 2 µM: HEK-293T; for inhibition at 3 µM: 3 μM compound concentration (footnote *); for inhibition at 3 µM / inhibition at 2 µM: read-out: RORγt (FL) Reporter Assay A or B, % inhibition; for inhibition at 6 µM: 6 μM compound, read-out: RORγt (FL) Reporter Assay A or B, % inhibition @ 6 μM; for inhibition at 2 µM: 2 μM compound concentration. The essentials: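 HEK293T cells expressing GAL4-DBD-RORγt fusion (96- or 384-well formats, DMEM/10% FBS) exposed to compound overnight (16–20 h). Firefly luciferase normalized to DMSO and saturating reference compound, then to Renilla; IC50 from dose curve, % inhibition versus DMSO.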
Chain of full-length human RORγt (GAL4-DBD-RORγt fusion) in HEK293T cells (P51449 other isoform, or with tags, fused parts or gaps): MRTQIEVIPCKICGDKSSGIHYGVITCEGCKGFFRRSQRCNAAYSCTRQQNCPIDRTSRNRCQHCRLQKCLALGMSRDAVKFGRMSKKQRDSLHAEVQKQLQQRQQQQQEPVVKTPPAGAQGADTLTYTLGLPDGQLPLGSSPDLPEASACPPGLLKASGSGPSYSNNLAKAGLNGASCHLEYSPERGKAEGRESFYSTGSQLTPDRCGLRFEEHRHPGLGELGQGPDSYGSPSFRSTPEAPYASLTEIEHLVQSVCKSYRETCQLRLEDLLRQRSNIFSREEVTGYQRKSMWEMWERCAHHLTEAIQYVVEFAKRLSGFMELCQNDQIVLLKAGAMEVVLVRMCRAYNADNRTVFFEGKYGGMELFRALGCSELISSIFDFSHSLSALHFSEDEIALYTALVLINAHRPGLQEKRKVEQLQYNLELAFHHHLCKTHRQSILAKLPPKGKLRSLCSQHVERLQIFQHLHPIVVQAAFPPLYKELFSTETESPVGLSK
For orientation: In a reporter assay the amount or activity of a reporter protein is the signal.

Chain of human RORγt ligand binding domain (RORγt LBD) (P51449 other isoform, or with tags, fused parts or gaps): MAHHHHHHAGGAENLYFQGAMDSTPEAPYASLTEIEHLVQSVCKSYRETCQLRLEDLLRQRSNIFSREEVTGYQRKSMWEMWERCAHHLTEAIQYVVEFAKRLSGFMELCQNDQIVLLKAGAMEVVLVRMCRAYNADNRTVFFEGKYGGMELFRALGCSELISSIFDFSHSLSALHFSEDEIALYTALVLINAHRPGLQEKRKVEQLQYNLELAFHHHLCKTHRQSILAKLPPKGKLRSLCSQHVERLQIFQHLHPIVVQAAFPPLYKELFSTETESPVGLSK

Take `CCc1cc(CC(C)(C)C(F)(F)F)ncc1-c1c(Cl)c(C(=O)NC[C@]2(O)CC[C@@H](S(C)(=O)=O)CC2)nn1CC` [Example 55, 4-Chloro-1-ethyl-5-(4-ethyl-6-(3,3,3-trifluoro-2,2-dimethylpropyl)pyridin-3-yl)-N-(((1s,4s)-1-hydroxy-4-(methylsulfonyl)cyclohexyl)methyl)-1H-pyrazole-3-carboxamide]: in experiment [1], the Kd came to 30 nM. In experiment [2], the IC50 stood at 280 nM and the inhibition at 3 µM is 78%.

`CCc1cc(CCC(C)(C)C)ncc1-c1c(Cl)c(C(=O)NC[C@]2(O)CC[C@@H](S(C)(=O)=O)CC2)nn1CC` [Example 59, 4-Chloro-5-(6-(3,3-dimethylbutyl)-4-ethylpyridin-3-yl)-1-ethyl-N-(((1s,4s)-1-hydroxy-4-(methylsulfonyl)cyclohexyl)methyl)-1H-pyrazole-3-carboxamide] yielded a Kd in experiment [1] of 35 nM. Moreover, in experiment [2], the IC50 was 210 nM and the inhibition at 3 µM was 82%.

The molecule `CCn1nc(C(=O)NC[C@H]2CC[C@H](S(C)(=O)=O)CC2)c(Cl)c1-c1cnc(CC(C)C(F)(F)F)cc1OC` (stereo partly drawn) [Example 60, 4-Chloro-1-ethyl-5-(4-methoxy-6-(3,3,3-trifluoro-2-methylpropyl)pyridin-3-yl)-N-(((1r,4r)-4-(methylsulfonyl)cyclohexyl)methyl)-1H-pyrazole-3-carboxamide] showed a Kd in experiment [1] of 11 nM. Further, in experiment [2], the 50% inhibitory concentration (IC50) amounted to 240 nM and the inhibition at 6 µM worked out at 88%.

Consider `CCn1nc(C(=O)NC[C@]2(O)CC[C@@H](S(C)(=O)=O)CC2)c(Cl)c1-c1cnc(O[C@H](C)C(F)(F)F)cc1OC` [Example 63, 4-Chloro-1-ethyl-N-(((1r,4R)-1-hydroxy-4-(methylsulfonyl)cyclohexyl)methyl)-5-(4-methoxy-6-(((R)-1,1,1-trifluoropropan-2-yl)oxy)pyridin-3-yl)-1H-pyrazole-3-carboxamide], for which the Kd in experiment [1] worked out at 12 nM. In addition, in experiment [2], the half-maximal inhibitory concentration (IC50) came out at 140 nM and the inhibition at 6 µM is 86%.

In experiment [1], `CCn1nc(C(=O)NC[C@H]2CC[C@H](S(C)(=O)=O)CC2)c(Cl)c1-c1cnc(O[C@@H](C)C(F)(F)F)cc1OC` [Example 64] returned a Kd of 15 nM. Further, in experiment [2], the concentration for half-maximal inhibition (IC50) came to 280 nM and the inhibition at 2 µM was found to be 39%.

Consider `CCn1nc(C(=O)NC[C@H]2CC[C@H](S(C)(=O)=O)CC2)c(Cl)c1-c1cnc(O[C@H](C)C(F)(F)F)cc1OC` [Example 65], for which the dissociation constant Kd in experiment [1] was found to be 12 nM. In addition, in experiment [2], the IC50 is 41 nM and the inhibition at 2 µM worked out at 75%.
